≈ marks a conversion by molar mass, not a printed value. Like-named read-outs stand apart in the source and are kept apart here.
Experiments:
Strep. pneum. 12 = assay: In vitro antibacterial activity (MIC), BHI agar; type: cell-based; conditions: 18 hours at 37° C., read-out: Minimum Inhibitory Concentration (MIC)
Protocol: (§1) The procedure which is followed is the one recommended by the International Collaborative Study on Antibiotic Sensitivity Testing [Ericcson and Sherris, Acta. Pathologica et Microbiologia Scandinav, Supp. 217, Sections A and B: 64-68 (1971)], and employs brain heart infusion (BHI) agar and the inocula replicating device. Overnight growth tubes are diluted 100 fold for use as the standard inoculum (20,000-10,000 cells in approximately 0.002 ml are placed on the agar surface; 20 ml of BHI agar/dish). Twelve 2 fold dilutions of the test compound are employed, with initial concentration of the test drug being 200 mcg/ml. Single colonies are disregarded when reading plates after 18 hours at 37° C. The susceptibility (MIC) of the test organism is accepted as the lowest concentration of compound capable of producing complete inhibition of growth as judged by the naked eye. A comparison of the in vitro activity of various compounds of the formulae (I) and (II) with tylonolide is recorded in Table 1.

Staph. epi. 126 = assay: In vitro antibacterial activity (MIC), BHI agar; type: cell-based; conditions: 18 hours at 37° C., read-out: Minimum Inhibitory Concentration (MIC)
Protocol: as §1

Staph. aur. 400 = assay: In vitro antibacterial activity (MIC), BHI agar; type: cell-based; conditions: 18 hours at 37° C., read-out: Minimum Inhibitory Concentration (MIC)
Protocol: as §1

Staph. aur. 52 = assay: In vitro antibacterial activity (MIC), BHI agar; type: cell-based; conditions: 18 hours at 37° C., read-out: Minimum Inhibitory Concentration (MIC)
Protocol: as §1

Staph. aur. 5 = assay: In vitro antibacterial activity (MIC), BHI agar; type: cell-based; conditions: 18 hours at 37° C., read-out: Minimum Inhibitory Concentration (MIC)
Protocol: as §1

Past. mult. 1 = assay: In vitro antibacterial activity (MIC), BHI agar; type: cell-based; conditions: 18 hours at 37° C., read-out: Minimum Inhibitory Concentration (MIC)
Protocol: as §1

Staph. epi. 111 = assay: In vitro antibacterial activity (MIC), BHI agar; type: cell-based; conditions: 18 hours at 37° C., read-out: Minimum Inhibitory Concentration (MIC)
Protocol: as §1

Staph. epi. 87 = assay: In vitro antibacterial activity (MIC), BHI agar; type: cell-based; conditions: read-out: Minimum Inhibitory Concentration (MIC)
Protocol: as §1

Strep. pyog. 203 = assay: In vitro antibacterial activity (MIC), BHI agar; type: cell-based; conditions: 18 hours at 37° C., read-out: Minimum Inhibitory Concentration (MIC)
Protocol: as §1

E. coli 470 = assay: In vitro antibacterial activity (MIC), BHI agar; type: cell-based; conditions: read-out: Minimum Inhibitory Concentration (MIC)
Protocol: as §1

Strep. faec. 6 = assay: In vitro antibacterial activity (MIC), BHI agar; type: cell-based; conditions: 18 hours at 37° C., read-out: Minimum Inhibitory Concentration (MIC)
Protocol: as §1

Neiss. sic. = assay: In vitro antibacterial activity (MIC), BHI agar; type: cell-based; conditions: 18 hours at 37° C., read-out: Minimum Inhibitory Concentration (MIC)
Protocol: as §1

[1] = test system: infections by sensitive bacteria; assay: In vivo activity against acute experimental infections in mice (PD50); conditions: Mus musculus, sc; subcutaneous; mice infected intraperitoneally, at least one LD100; organism not given; read-out: PD50 (dose which protects 50% of the animals from infection)
From the text: In determining such activity, acute experimental infections are produced in mice by the intraperitoneal inoculation of the mice with a standardized culture of the test organism suspended in 5 percent hog gastric mucin. Infection severity is standarized so that the mice receive at least one LD100 dose of the organism (LD100 : the minimum inoculum of organism required to consistently kill 100 percent of the infected, nontreated control mice). The test compound is then subcutaneously or orally administered at various dosage levels to groups of infected mice. At the end of the test, the activity of the mixture is assessed by counting the number of survivors among treated animals at a given dose. Activity is expressed as the percentage of animals which survive at a given dose, or calculated as a PD50 (dose which protects 50% of the animals from infection).

Bac. sub. 1 = assay: In vitro antibacterial activity (MIC), BHI agar; type: cell-based; conditions: 18 hours at 37° C., read-out: Minimum Inhibitory Concentration (MIC)
Protocol: as §1

[2] = Escherichia coli, E. coli 470, BHI agar, 18 hours at 37° C.

Structure (SMILES) | MIC (Strep. pneum. 12) [µg/mL] | MIC (Staph. epi. 126) [µg/mL] | MIC (Staph. aur. 400) [µg/mL] | MIC (Staph. aur. 52) [µg/mL] | MIC (Staph. aur. 5) [µg/mL] | MIC (Past. mult. 1) [µg/mL] | MIC (Staph. epi. 111) [µg/mL] | MIC (Staph. epi. 87; 18 h) [µg/mL] | MIC (Strep. pyog. 203) [µg/mL] | MIC (E. coli 470; Escherichia coli, 470, 18 h) [µg/mL] | MIC (Strep. faec. 6) [µg/mL] | MIC (Neiss. sic.) [µg/mL] | ED50 [1] [mg/kg] | MIC (Bac. sub. 1) [µg/mL] | MIC (Staph. epi. 87; Staph. epi. 87, BHI agar, 18 hours at 37° C.) [µg/mL] | MIC (E. coli 470; [2]) [µg/mL]
CCC1OC(=O)CC(O)C(C)C(OC2OC(C)C(O)C(N(C)C)C2O)C(CC=O)CC(C)C(=O)C=CC(C)=CC1CO [(a), 5-(3,6-dideoxy-3-dimethylamino-beta-D-glucopyrnosyloxy)-6-formylmethyl-3-hydroxy-14-hydroxymethyl-4,8,12-trimethyl-9-oxo-10,12-heptadecadien-15-olide, reference compound] | 0.1 (≈ 0.167 µM) | 0.78 (≈ 1.3 µM) | 1.56 (≈ 2.61 µM) | 0.78 (≈ 1.3 µM) | 0.78 (≈ 1.3 µM) | 1.56 (≈ 2.61 µM) | 1.56 (≈ 2.61 µM) | 3.12 (≈ 5.22 µM) | 0.39 (≈ 0.652 µM) | 3.12 (≈ 5.22 µM) | 0.78 (≈ 1.3 µM) | 6.25 (≈ 10.5 µM) | 3.12 |  |  | 
CCC1OC(=O)CC(O)C(C)C(OC2OC(C)C(O)C(N(C)C)C2O)C(CC=O)CC(C)C(=O)C=CC(C)=CC1COS(=O)(=O)c1ccc(C)cc1 (stereo not shown) [(b)] |  | 1.56 (≈ 2.07 µM) | 0.78 (≈ 1.04 µM) | 0.78 (≈ 1.04 µM) | 0.78 (≈ 1.04 µM) | 3.12 (≈ 4.15 µM) | 1.56 (≈ 2.07 µM) |  | 0.2 (≈ 0.266 µM) |  | 0.39 (≈ 0.519 µM) | 1.56 (≈ 2.07 µM) | 19 | 0.78 (≈ 1.04 µM) |  | 
CCC1OC(=O)CC(O)C(C)C(OC2OC(C)C(O)C(N(C)C)C2O)C(CC=NN(C)C)CC(C)C(=O)C=CC(C)=CC1COS(=O)(=O)c1ccc(C)cc1 (stereo not shown) [(c)] |  | 1.56 (≈ 1.96 µM) | 0.2 (≈ 0.252 µM) | 0.2 (≈ 0.252 µM) | 0.1 (≈ 0.126 µM) | 3.12 (≈ 3.93 µM) | 0.1 (≈ 0.126 µM) |  | 0.05 (≈ 0.063 µM) |  | 0.1 (≈ 0.126 µM) | 0.78 (≈ 0.982 µM) | 50 | 0.2 (≈ 0.252 µM) |  | 
CCC1OC(=O)CC(O)C(C)C(OC2OC(C)C(O)C(N(C)C)C2O)C(CC=O)CC(C)C(=O)C=CC(C)=CC1CI (stereo not shown) [(d)] |  | 6.25 (≈ 8.83 µM) | 1.56 (≈ 2.2 µM) | 0.39 (≈ 0.551 µM) | 0.39 (≈ 0.551 µM) |  | 0.78 (≈ 1.1 µM) |  | 0.1 (≈ 0.141 µM) |  | 3.12 (≈ 4.41 µM) | 0.78 (≈ 1.1 µM) |  | 0.78 (≈ 1.1 µM) |  | 
CCC1OC(=O)CC(O)C(C)C(OC2OC(C)C(O)C(N(C)C)C2O)C(CC=NN(C)C)CC(C)C(=O)C=CC(C)=CC1CI (stereo not shown) [(e)] |  | 0.78 (≈ 1.04 µM) | 0.2 (≈ 0.267 µM) | 0.2 (≈ 0.267 µM) | 0.2 (≈ 0.267 µM) | 1.56 (≈ 2.08 µM) | 0.2 (≈ 0.267 µM) |  | 0.1 (≈ 0.133 µM) |  | 0.39 (≈ 0.52 µM) | 0.39 (≈ 0.52 µM) | > 50 | 0.1 (≈ 0.133 µM) |  | 
CCC1OC(=O)CC(OC(C)=O)C(C)C(OC2OC(C)C(O)C(N(C)C)C2O)C(CC=O)CC(C)C(=O)C=CC(C)=CC1CN(C)C (stereo not shown) [(f)] |  | 1.56 (≈ 2.34 µM) | 3.12 (≈ 4.68 µM) | 3.12 (≈ 4.68 µM) | 3.12 (≈ 4.68 µM) | 6.25 (≈ 9.37 µM) | 1.56 (≈ 2.34 µM) |  | 0.39 (≈ 0.585 µM) |  | 6.25 (≈ 9.37 µM) | 3.12 (≈ 4.68 µM) |  | 0.78 (≈ 1.17 µM) |  | 
CCC1OC(=O)CC(O)C(C)C(OC2OC(C)C(O)C(N(C)C)C2O)C(CC=O)CC(C)C(=O)C=CC(C)=CC1CCl (stereo not shown) [(g)] | 0.02 (≈ 0.0325 µM) | 0.78 (≈ 1.27 µM) | 0.39 (≈ 0.633 µM) | 0.78 (≈ 1.27 µM) | 0.78 (≈ 1.27 µM) | 1.56 (≈ 2.53 µM) | 0.2 (≈ 0.325 µM) |  | 0.39 (≈ 0.633 µM) |  | 0.78 (≈ 1.27 µM) | 1.56 (≈ 2.53 µM) | 13 | 0.1 (≈ 0.162 µM) | 25 (≈ 40.6 µM) | 0.78 (≈ 1.27 µM)
CCC1OC(=O)CC(O)C(C)C(OC2OC(C)C(O)C(N(C)C)C2O)C(CC=O)CC(C)C(=O)C=CC(C)=CC1CN(C)C (stereo not shown) [(h)] | 0.39 (≈ 0.624 µM) | 3.12 (≈ 4.99 µM) | 1.56 (≈ 2.5 µM) | 1.56 (≈ 2.5 µM) | 0.78 (≈ 1.25 µM) | 1.56 (≈ 2.5 µM) | 0.78 (≈ 1.25 µM) |  | 0.2 (≈ 0.32 µM) |  | 3.12 (≈ 4.99 µM) | 12.5 (≈ 20 µM) | 2.4 |  |  | 1.56 (≈ 2.5 µM)

From patent US4454314A, “Antibacterial mycaminosyl tylonolide and related macrolide derivatives” (Pfizer Inc., priority 1982, dated 1984)
